Experiments:
mice [1] = conditions: mouse, in vivo
mice [2] = conditions: mouse, in vivo; remark: listed apart in the source
CF-1 mice = conditions: in vivo
[3] = in vivo

## NGVCCGYKLCHOC [Mar1]
Mice [1]
  symptoms after high-dose i.c.v. administration: akinesia and seizures
  symptoms after i.c.v. injection of HPLC fractions: hypokinetic “sluggish” symptoms
Mice [2]
  activity in tail-flick model: active
  effective dose range: low nanomole range
  response latency in the tail flick model: reduced the response latency
CF-1 mice
  analgesic activity in mouse hot plate assay: potent analgesics
CF-1 mice; mouse
  increase in the latency to first hind paw lick: dose-dependent
  latency to first hind paw lick: 39.5 ± 13.5 s
  latency to lick the hind paw: significantly increased
[3]
  activity in formalin test (licking time): active
